# Results as given in patent publication EP0358152A1, “Diazine-substituted 1-adamantanes, process for their preparation, and their use as medicaments” (priority 1988, dated 1990).
# “And” between values parts separate entries of the source, which are not always exact repeats. Identical values can stand only once.
# What was measured:
# [1] = tested on: Subtyp H2N2 A/Singapore 1/57; type: cell-based, Influenzaviren Typ A
# [2] = tested on: Subtyp H1N1 A/Brasil 11/78; type: cell-based, Influenzaviren Typ A
# [3] = tested on: Subtyp H3N2 A/Philippines 2/82; type: cell-based, Influenzaviren Typ A
# [4] = tested on: Influenzavirus Typ A Subtyp H1N1 A/Taiwan 1/86; type: cell-based
# Influenzaviren vom Typ B = assay: Inhibitory effect on influenza viruses of type B; type: cell-based; conditions: statement in words
# A/Krasnodar 101/59 = type: cell-based, Influenzaviren Typ A
# [5] = tested on: Subtyp H3N2 A/Hongkong 1/68; type: cell-based, Influenzaviren Typ A
# Typ B B/Singapore 222/79 = type: cell-based, Influenzaviren Typ B
smiles,measurement,setting,value
"Nc1nccc(C23CC4CC(CC(C4)C2)C3)n1 [4-(Adamant-1-yl)-2-amino-pyrimidin, 4-(Adamant-1-yl)-2-aminopyrimidin]",Titerdifferenz (log 10),[1],"1,55 log 10 and 1,67 log 10"
same,Titerdifferenz (log 10),[2],"2,8 log 10 and 2,0 log 10"
"CC(N)C12CC3CC(CC(C3)C1)C2.Cl (stereo not drawn) [Rimantadin, α-Methyl-1-adamantanmethylaminhydrochlorid]",ID₅₀ (log 10) mit Wirkstoff,[1],"2,5 log 10"
same,Titerreduktion (log 10),[3],"0,17 log 10"
same,Titerreduktion (log 10),[4],"1,5 log 10 and 1,84 log 10"
same,Hemmwirkung gegenüber Influenzaviren vom Typ B,Influenzaviren vom Typ B,nicht spezifisch wirksam
"c1cnc(C23CC4CC(CC(C4)C2)C3)cn1 [2-(Adamant-1-yl)-pyrazin, 2-(Adamant-1-yl-)-pyrazin]",Titerdifferenz (log 10),[1],"1,51 log 10 and 1,33 log 10 and 1,17 log 10"
same,ID50 mit Wirkstoff (log 10),[3],"5,5 log 10"
same,Titerdifferenz (log 10),[3],"0,33 log 10 and 0,83 log 10"
"Cc1cc(C23CC4CC(CC(C4)C2)C3)ncn1 [6-(Adamant-1-yl)-4-methyl-pyrimidin, 6-(Adamant-1-yl)-4-methylpyrimidin]",ID50 mit Wirkstoff (log 10),[3],"5,0 log 10 and 5,67 log 10"
same,ID50 mit Wirkstoff (log 10),[2],"3,83 log 10 and 3,33 log 10 and 3,0 log 10"
same,ID50 mit Wirkstoff (log 10),A/Krasnodar 101/59,"2,5 log 10"
same,Titerdifferenz (log 10),A/Krasnodar 101/59,"2,5 log 10"
same,ID50 mit Wirkstoff (log 10),[5],"3,83 log 10"
same,Titerdifferenz (log 10),[5],"0,92 log 10"
same,ID50 mit Wirkstoff (log 10),Typ B B/Singapore 222/79,"5,67 log 10"
same,Titerdifferenz (log 10),Typ B B/Singapore 222/79,"0,66 log 10 and 0,5 log 10"
c1cc(C23CC4CC(CC(C4)C2)C3)ncn1 [4-(Adamant-1-yl)-pyrimidin],Titerdifferenz (log 10),[1],"1,33 log 10 and 1,5 log 10 and 1,34 log 10"
same,ID50 mit Wirkstoff (log 10),[3],"5,17 log 10"
"Cc1cncc(C23CC4CC(CC(C4)C2)C3)n1 [6-(Adamant-1-yl)-2-methyl-pyrazin, 6-(Adamant-1-yl)-2-methylpyrazin]",ID50 mit Wirkstoff (log 10),[2],"3,33 log 10 and 3,67 log 10"
same,Titerdifferenz (log 10),[2],"1,97 log 10 and 1,66 log 10"
